# Measured values reported in paper PMC6904362, “Omeprazole Treatment Enhances Nitrogen Use Efficiency Through Increased Nitrogen Uptake and Assimilation in Corn” (Frontiers in Plant Science, 2019).
# Test system: T1, purified NADH-Nitrate Reductase (NR) from Arabidopsis thaliana
# T1 construct: gene NIA2; commercial Arabidopsis NR is probably recombinant NIA2
# Assay: NR activity assay, nitrite detection (sulphanilamide/NED, […] nm), nonlinear regression
# Assay type: biochemical
# Conditions: 0.8 mM NADH, 50 mM Hepes/KOH pH 7.5, FAD, Na2MoO4; nitrate 0.08-1.5 mM; no omeprazole
smiles,measurement,value
"O=[N+]([O-])O [NO3 ^-, nitrate]",Km,408 µM
